Measurements: US8598342B2, “Methods and compounds for antimicrobial intervention” (President and Fellows of Harvard College, priority 2008, dated 2013)
Entries after “also recorded” stand apart in the source; their conditions may differ.

Columns and labels:
[1] = system: S. aureus strains, including five MRSA strains; assay: In vitro MIC against a panel of S. aureus strains including MRSA; assay type: cell-based, Staphylococcus aureus
Protocol: (§1) (A) Targocil MIC data for a panel of Gram-positive strains, including MRSA clinical isolates B5271 and 5340A. Growth was monitored in triplicate after 12 h at 28° C. using optical density. (B) Two dimensional drug interaction analysis between tunicamycin and targocil grown for 18 h at 30° C. […] At higher concentrations, tunicamycin is toxic because it inhibits cell wall biosynthesis. […] Varying concentrations of drug were added to […] of S. aureus RN4220 after 5 h and cell count was monitored over time at 30° C. […] Cells were grown at 28° C. for 12 h and monitored for growth using optical density (OD600). Data were normalized to the DMSO controls for each strain. (E) Two classes of mutants were examined: phage resistant (m1 3) and phage sensitive (m4-5).
(G. Bou, (2007) Methods Mol Biol 391, 29)

[2] = molecular target: T1, S. aureus TarB (Staphylococcus aureus, UniProt Q2G2X4); assay: In vitro enzyme inhibition assay, TarB (radiometric); assay type: biochemical; settings: targocil 50 μg/mL; enzyme 200 nM
T1 construct: made in house
T1 sequence (Q2G2X4 1-367): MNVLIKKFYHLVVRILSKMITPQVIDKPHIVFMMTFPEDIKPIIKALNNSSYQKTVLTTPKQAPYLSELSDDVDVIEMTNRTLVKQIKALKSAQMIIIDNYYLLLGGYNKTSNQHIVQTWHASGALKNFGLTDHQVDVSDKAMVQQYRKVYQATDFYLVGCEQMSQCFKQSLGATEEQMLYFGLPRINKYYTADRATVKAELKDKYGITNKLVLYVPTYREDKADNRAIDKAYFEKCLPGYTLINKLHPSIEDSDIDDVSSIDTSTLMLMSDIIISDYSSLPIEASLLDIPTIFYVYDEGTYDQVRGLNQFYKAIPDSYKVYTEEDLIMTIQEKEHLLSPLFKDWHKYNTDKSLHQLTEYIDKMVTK
Protocol: (§2) S. aureus TarB, D, F, I, and L were cloned, overexpressed and purified as described previously (S. Brown, Y. H. Zhang, S. Walker, Chemistry & Biology 15, 12, Jan. 2008.) Radiometric in vitro assays were run to test the inhibitory effects of targocil on Tar B, D, F, and L, while TarI was assayed for targocil inhibition using an HPLC assay using conditions similar to those previously reported (ibid). See below for exact reaction conditions. […] In each case, a reaction with no targocil served as a negative control (active enzymatic reaction) and a reaction with heat-treated enzyme served as a positive control (no enzymatic reaction). Targocil was incubated with all reaction components except the substrates at room temperature. After 10 minutes, substrates were added and the reactions were allowed to proceed for 60 minutes. The reactions were quenched with DMF and the products were imaged/monitored as previously described (ibid).

[3] = molecular target: T2, S. aureus TarD (Staphylococcus aureus, UniProt Q2G2X2); assay: In vitro enzyme inhibition assay, TarD (radiometric); assay type: biochemical; settings: targocil 50 μg/mL; enzyme 200 nM
T2 construct: made in house
T2 sequence (Q2G2X2 1-132): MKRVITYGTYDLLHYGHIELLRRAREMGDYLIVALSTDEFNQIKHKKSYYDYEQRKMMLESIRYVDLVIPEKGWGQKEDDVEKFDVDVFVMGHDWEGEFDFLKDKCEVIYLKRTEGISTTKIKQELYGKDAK
Protocol: as §2
TarD in vitro inhibition assay protocol and data. Each 3 μL reaction contained 50 mM HEPES pH 8, 10 mM MgCl2, 1 mM DTT, 1 μM [14C]-glycerol-3-phosphate, 9 μM glycerol-3-phosphate, 20 μM CTP, 200 nM TarD. The reactions were quenched with 3 μL DMF, and 2 μL of the reaction mixture were combined with 2 μL 2× loading dye (40% glycerol, 0.2% bromophenol blue) and loaded onto a 20% acrylamide/0.25M TBE gel as described previously (ibid.). […]

[4] = system: S. aureus RN4220; assay: Kill curve analysis; assay type: cell-based, Staphylococcus aureus; settings: 10^6 cfu/mL S. aureus RN4220, 30° C.
Protocol: as §1

[5] = system: S. aureus RN4220 TarG:F82L (m4); assay: MIC analysis of RN4220 carrying the mutant tarG allele TarG:F82L; assay type: cell-based, Staphylococcus aureus; settings: mutant allele exchanged into RN4220
From the text: Therefore, we conclude that TarG is a target of targocil. […] (Davidson A L, Dassa E, Orelle C, & Chen J (2008) Microbiology and Molecular Biology Reviews 72:317-364) In addition to functioning as antibiotics, inhibitors such as targocil, and derivatives thereof, could be valuable tools for mechanistic and structural analyses of ABC transporters.

[6] = system: S. aureus RN4220 invasion of human corneal epithelial cells (HCEC); assay: Human corneal epithelial cell (HCEC) invasion / internalization model; assay type: cell-based, Staphylococcus aureus; settings: wildtype S. aureus grown with 8×MIC (20 μg/mL) of targocil
Protocol: An overnight culture of S. aureus RN4220 and its isogenic ΔtarO strain were grown with shaking at 37° C. in either 1% DMSO or in the presence of 8×MIC (20 μg/mL) of targocil 1% DMSO. Human corneal epithelial cells (HCEC) were cultured separately in 24-well plates. Prior to incubation with HCEC, the bacteria were washed twice with keratinocyte culture media—serum free (KBM-SFM) including 8×MIC of targocil in 1% DMSO or 1% DMSO. The S. aureus strains (approximately 10^8 CFU in 1 mL of KBM-SFM including either 8×MIC of targocil 1% DMSO or 1% DMSO) were then applied to the HCEC monolayers. (The initial inoculum of each group was determined by serial dilution and plate counting.) Following incubation at 37° C. for 1 h, bacteria were removed and the monolayers were washed twice with Hank's balanced salt solution (HBSS), and covered with 1 mL of KBM-SFM containing gentamycin (100 μg/mL) and incubated at 37° C. for 1 h to kill residual extracellular bacteria. The monolayers were washed twice with HBSS, lysed, and homogenized in 1 mL of lysis solution (0.25% trypsin-0.025% Triton X-100). Lysates were serially diluted and plated on brain-heart infusion agar, and colonies were enumerated following overnight incubation at 37° C.
The data workup was done by first determining the percentage of internalized bacteria compared to the initial inoculum. […]

Q: With CCN(CC)c1nc2c(S(=O)(=O)c3ccccc3)nnn2c2ccc(Cl)cc12 [7-chloro-N,N-diethyl-3-(phenylsulfonyl)-[1,2,3]triazolo[1,5-a]quinazolin-5-amine] as the molecule, how does the “effectiveness against strains of S. aureus” value ([1]; RN4220, RN450, Newman strain, Wood strain) read?
A: effective against numerous strains of S. aureus

Q: And the “in vitro MIC values against all tested S. aureus strains” value ([1]; including five MRSA strains)?
A: low μg/mL range

Q: What about the “species selectivity of antibiotic activity” value ([1]; panel of Gram-positive strains) of the same molecule?
A: selective for S. aureus

Q: What about the “inhibition of TarB” value [2] of the same molecule?
A: None of these enzymes was inhibited

Q: And the “inhibition of TarD” value [3]?
A: None of these enzymes was inhibited

Q: And the “mode of action in kill curve (bacteriostatic or bactericidal)” value [4]?
A: bacteriostatic

Q: What about the “resistance to targocil of TarG:F82L strain” value [5] of the same molecule?
A: fully resistant; also recorded: confer resistance

Q: And the “invasion of HCECs by targocil-treated bacteria” value [6]?
A: behaved similarly to the ΔtarO strain
